Species on record: Rattus norvegicus
Assay: DrugMatrix - Regimen: Daily Repeat
Assay type: toxicity, organism-based, Sprague-Dawley
Parameters: regimen Daily Repeat, gender Male, age 6-8 weeks
Details: in vivo, po, 72 h, route oral GAVAGE, time 3 day, vehicle .5 % CMC; for ABSOLUTE BASOPHIL / ABSOLUTE EOSINOPHIL / ABSOLUTE LYMPHOCYTE / ABSOLUTE MONOCYTE / ABSOLUTE SEGMENTED NEUTROPHIL / BASOPHIL / EOSINOPHIL / ERYTHROCYTE COUNT / HEMATOCRIT / HEMOGLOBIN / LEUKOCYTE COUNT / LYMPHOCYTE / MEAN CORPUSCULAR HEMOGLOBIN / MEAN CORPUSCULAR HEMOGLOBIN CONCENTRATION / MEAN CORPUSCULAR VOLUME / MONOCYTE / NEUTROPHIL / NUCLEATED RED BLOOD CELLS / PLATELET COUNT: tissue Blood; for ALANINE AMINOTRANSFERASE / ALBUMIN / ALKALINE PHOSPHATASE / ASPARTATE AMINOTRANSFERASE / BLOOD UREA NITROGEN / CARBON DIOXIDE / CHLORIDE / CHOLESTEROL / CREATINE PHOSPHOKINASE / CREATININE / GLUCOSE / LACTATE DEHYDROGENASE / LIPASE / PHOSPHORUS / POTASSIUM / SODIUM / TOTAL BILIRUBIN / TOTAL PROTEIN / URIC ACID: tissue Plasma

C=C1CC[C@H](O)C/C1=C/C=C1\CCC[C@]2(C)[C@@H]([C@H](C)/C=C/[C@H](C)C(C)C)CC[C@@H]12 [ERGOCALCIFEROL]
ABSOLUTE BASOPHIL (0 mg/kg, dose level Control): 0 CELLS/uL | ABSOLUTE EOSINOPHIL (0 mg/kg, dose level Control): 8.83 CELLS/uL | ABSOLUTE LYMPHOCYTE (0 mg/kg, dose level Control): 7222.33 CELLS/uL | ABSOLUTE MONOCYTE (0 mg/kg, dose level Control): 0 CELLS/uL | ABSOLUTE SEGMENTED NEUTROPHIL (0 mg/kg, dose level Control): 752.17 CELLS/uL | BASOPHIL (0 mg/kg, dose level Control): 0% | EOSINOPHIL (0 mg/kg, dose level Control): 0.17% | ERYTHROCYTE COUNT (0 mg/kg, dose level Control): 5.22 x10E6/uL | HEMATOCRIT (0 mg/kg, dose level Control): 32.6% | HEMOGLOBIN (0 mg/kg, dose level Control): 12.43 G/DL | LEUKOCYTE COUNT (0 mg/kg, dose level Control): 7.98 x10E3/uL | LYMPHOCYTE (0 mg/kg, dose level Control): 91.17% | MEAN CORPUSCULAR HEMOGLOBIN (0 mg/kg, dose level Control): 23.87 pg | MEAN CORPUSCULAR HEMOGLOBIN CONCENTRATION (0 mg/kg, dose level Control): 38.18 G/DL | MEAN CORPUSCULAR VOLUME (0 mg/kg, dose level Control): 62.48 fL | MONOCYTE (0 mg/kg, dose level Control): 0% | NEUTROPHIL (0 mg/kg, dose level Control): 8.67% | NUCLEATED RED BLOOD CELLS (0 mg/kg, dose level Control): 0 /100WBC | PLATELET COUNT (0 mg/kg, dose level Control): 1082.33 x10E3/uL | ALANINE AMINOTRANSFERASE (0 mg/kg, dose level Control): 42.17 u/L | ALBUMIN (0 mg/kg, dose level Control): 4.33 G/DL | ALKALINE PHOSPHATASE (0 mg/kg, dose level Control): 451.17 u/L | ASPARTATE AMINOTRANSFERASE (0 mg/kg, dose level Control): 76.17 u/L | BLOOD UREA NITROGEN (0 mg/kg, dose level Control): 13.33 mg/dL | CARBON DIOXIDE (0 mg/kg, dose level Control): 31.67 mmol/L | CHLORIDE (0 mg/kg, dose level Control): 96.5 MEQ/L | CHOLESTEROL (0 mg/kg, dose level Control): 78 mg/dL | CREATINE PHOSPHOKINASE (0 mg/kg, dose level Control): 216.5 u/L | CREATININE (0 mg/kg, dose level Control): 0.22 mg/dL | GLUCOSE (0 mg/kg, dose level Control): 137 mg/dL | LACTATE DEHYDROGENASE (0 mg/kg, dose level Control): 138.5 u/L | LIPASE (0 mg/kg, dose level Control): 8.67 u/L | PHOSPHORUS (0 mg/kg, dose level Control): 12.68 mg/dL | POTASSIUM (0 mg/kg, dose level Control): 6.23 MEQ/L | SODIUM (0 mg/kg, dose level Control): 143.47 MEQ/L | TOTAL BILIRUBIN (0 mg/kg, dose level Control): 0.15 mg/dL | TOTAL PROTEIN (0 mg/kg, dose level Control): 6.33 G/DL | URIC ACID (0 mg/kg, dose level Control): 1.1 mg/dL | ABSOLUTE BASOPHIL (1 mg/kg, dose level Low): 0 CELLS/uL | ABSOLUTE EOSINOPHIL (1 mg/kg, dose level Low): 30.67 CELLS/uL | ABSOLUTE LYMPHOCYTE (1 mg/kg, dose level Low): 8277.33 CELLS/uL | ABSOLUTE MONOCYTE (1 mg/kg, dose level Low): 0 CELLS/uL | ABSOLUTE SEGMENTED NEUTROPHIL (1 mg/kg, dose level Low): 658.67 CELLS/uL | BASOPHIL (1 mg/kg, dose level Low): 0% | EOSINOPHIL (1 mg/kg, dose level Low): 0.33% | ERYTHROCYTE COUNT (1 mg/kg, dose level Low): 5.18 x10E6/uL | HEMATOCRIT (1 mg/kg, dose level Low): 32.07% | HEMOGLOBIN (1 mg/kg, dose level Low): 12.3 G/DL | LEUKOCYTE COUNT (1 mg/kg, dose level Low): 8.97 x10E3/uL | LYMPHOCYTE (1 mg/kg, dose level Low): 92.33% | MEAN CORPUSCULAR HEMOGLOBIN (1 mg/kg, dose level Low): 23.7 pg | MEAN CORPUSCULAR HEMOGLOBIN CONCENTRATION (1 mg/kg, dose level Low): 38.37 G/DL | MEAN CORPUSCULAR VOLUME (1 mg/kg, dose level Low): 61.9 fL | MONOCYTE (1 mg/kg, dose level Low): 0% | NEUTROPHIL (1 mg/kg, dose level Low): 7.33% | NUCLEATED RED BLOOD CELLS (1 mg/kg, dose level Low): 0.33 /100WBC | PLATELET COUNT (1 mg/kg, dose level Low): 1019.33 x10E3/uL | ALANINE AMINOTRANSFERASE (1 mg/kg, dose level Low): 47 u/L | ALBUMIN (1 mg/kg, dose level Low): 4.37 G/DL | ALKALINE PHOSPHATASE (1 mg/kg, dose level Low): 374.33 u/L | ASPARTATE AMINOTRANSFERASE (1 mg/kg, dose level Low): 77.33 u/L | BLOOD UREA NITROGEN (1 mg/kg, dose level Low): 13.33 mg/dL | CARBON DIOXIDE (1 mg/kg, dose level Low): 31 mmol/L | CHLORIDE (1 mg/kg, dose level Low): 97.33 MEQ/L | CHOLESTEROL (1 mg/kg, dose level Low): 71.67 mg/dL | CREATINE PHOSPHOKINASE (1 mg/kg, dose level Low): 205 u/L | CREATININE (1 mg/kg, dose level Low): 0.28 mg/dL | GLUCOSE (1 mg/kg, dose level Low): 142 mg/dL | LACTATE DEHYDROGENASE (1 mg/kg, dose level Low): 139.33 u/L | LIPASE (1 mg/kg, dose level Low): 8 u/L | PHOSPHORUS (1 mg/kg, dose level Low): 13.07 mg/dL | POTASSIUM (1 mg/kg, dose level Low): 6.56 MEQ/L | SODIUM (1 mg/kg, dose level Low): 144.27 MEQ/L | TOTAL BILIRUBIN (1 mg/kg, dose level Low): 0.17 mg/dL | TOTAL PROTEIN (1 mg/kg, dose level Low): 6.43 G/DL | URIC ACID (1 mg/kg, dose level Low): 1.17 mg/dL | ABSOLUTE BASOPHIL (15 mg/kg, dose level High): 0 CELLS/uL | ABSOLUTE EOSINOPHIL (15 mg/kg, dose level High): 0 CELLS/uL | ABSOLUTE LYMPHOCYTE (15 mg/kg, dose level High): 7628 CELLS/uL | ABSOLUTE MONOCYTE (15 mg/kg, dose level High): 40.67 CELLS/uL | ABSOLUTE SEGMENTED NEUTROPHIL (15 mg/kg, dose level High): 1198 CELLS/uL | BASOPHIL (15 mg/kg, dose level High): 0% | EOSINOPHIL (15 mg/kg, dose level High): 0% | ERYTHROCYTE COUNT (15 mg/kg, dose level High): 5.54 x10E6/uL | HEMATOCRIT (15 mg/kg, dose level High): 34.3% | HEMOGLOBIN (15 mg/kg, dose level High): 13.2 G/DL | LEUKOCYTE COUNT (15 mg/kg, dose level High): 8.87 x10E3/uL | LYMPHOCYTE (15 mg/kg, dose level High): 86.67% | MEAN CORPUSCULAR HEMOGLOBIN (15 mg/kg, dose level High): 23.83 pg | MEAN CORPUSCULAR HEMOGLOBIN CONCENTRATION (15 mg/kg, dose level High): 38.5 G/DL | MEAN CORPUSCULAR VOLUME (15 mg/kg, dose level High): 61.97 fL | MONOCYTE (15 mg/kg, dose level High): 0.33% | NEUTROPHIL (15 mg/kg, dose level High): 13% | NUCLEATED RED BLOOD CELLS (15 mg/kg, dose level High): 0.33 /100WBC | PLATELET COUNT (15 mg/kg, dose level High): 1196.67 x10E3/uL | ALANINE AMINOTRANSFERASE (15 mg/kg, dose level High): 55 u/L | ALBUMIN (15 mg/kg, dose level High): 4.43 G/DL | ALKALINE PHOSPHATASE (15 mg/kg, dose level High): 367.33 u/L | ASPARTATE AMINOTRANSFERASE (15 mg/kg, dose level High): 84 u/L | BLOOD UREA NITROGEN (15 mg/kg, dose level High): 14.33 mg/dL | CARBON DIOXIDE (15 mg/kg, dose level High): 31.67 mmol/L | CHLORIDE (15 mg/kg, dose level High): 93.33 MEQ/L | CHOLESTEROL (15 mg/kg, dose level High): 74.33 mg/dL | CREATINE PHOSPHOKINASE (15 mg/kg, dose level High): 211.67 u/L | CREATININE (15 mg/kg, dose level High): 0.24 mg/dL | GLUCOSE (15 mg/kg, dose level High): 139.33 mg/dL | LACTATE DEHYDROGENASE (15 mg/kg, dose level High): 153 u/L | LIPASE (15 mg/kg, dose level High): 8.33 u/L | PHOSPHORUS (15 mg/kg, dose level High): 13.23 mg/dL | POTASSIUM (15 mg/kg, dose level High): 6.15 MEQ/L | SODIUM (15 mg/kg, dose level High): 144.7 MEQ/L | TOTAL BILIRUBIN (15 mg/kg, dose level High): 0.1 mg/dL | TOTAL PROTEIN (15 mg/kg, dose level High): 6.63 G/DL | URIC ACID (15 mg/kg, dose level High): 1.43 mg/dL

Source: ChEMBL document CHEMBL3885881, “DrugMatrix”
